The values below come from patent publication US12268667B2, “JAK1 pathway inhibitors for the treatment of prurigo nodularis” (Incyte Corporation, priority 2021, dated 2025).

Test [1] addresses human JAK1 (a.a. 837-1142) (Homo sapiens, UniProt P23458). Put plainly: In vitro JAK kinase assay (HTRF), JAK1. The conditions noted are these: 1 mM ATP. The class given is biochemical.
Procedure: (§1) The catalytic activity of JAK1, JAK2 or JAK3 are assayed by measuring the phosphorylation of a biotinylated peptide. The phosphorylated peptide was detected by homogenous time resolved fluorescence (HTRF). […] Reactions are carried out at room temperature for 1 hour and then stopped with 20 μL 45 mM EDTA, 300 nM SA-APC, 6 nM Eu-Py20 in assay buffer (Perkin Elmer, Boston, MA). Binding to the Europium labeled antibody takes place for 40 minutes and HTRF signal was measured on a Fusion plate reader (Perkin Elmer, Boston, MA).
For test [2], the target named is human JAK2 (a.a. 828-1132) (Homo sapiens (Human), UniProt O60674). Briefly: In vitro JAK kinase assay (HTRF), JAK2. The class given is biochemical. The following applies: JAK2/JAK1 IC50 ratio at 1 mM ATP. Background: In TR-FRET formats the signal depends on donor and acceptor labels being close together.
Sequence of human JAK2 (a.a. 828-1132) (O60674 828-1132): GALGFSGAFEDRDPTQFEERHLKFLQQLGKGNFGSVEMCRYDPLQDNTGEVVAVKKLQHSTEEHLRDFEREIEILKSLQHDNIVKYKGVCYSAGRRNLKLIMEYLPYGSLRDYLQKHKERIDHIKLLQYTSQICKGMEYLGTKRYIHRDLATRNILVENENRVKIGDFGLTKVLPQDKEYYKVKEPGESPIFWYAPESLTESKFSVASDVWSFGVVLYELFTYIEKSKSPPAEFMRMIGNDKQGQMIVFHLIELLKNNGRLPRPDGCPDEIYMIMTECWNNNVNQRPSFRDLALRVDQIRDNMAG
Procedure: as §1

As usually defined, the IC50 is the concentration needed to halve the response being measured. With `N#CC[C@]1(n2cc(-c3ncnc4[nH]ccc34)cn2)C[C@H](N2CCN(C(=O)c3ccnc(C(F)(F)F)n3)CC2)C1` [Compound 10, [trans-1-[4-(7H-pyrrolo[2,3-d]pyrimidin-4-yl)-1H-pyrazol-1-yl]-3-(4-{[2-(trifluoromethyl)pyrimidin-4-yl]carbonyl}piperazin-1-yl)cyclobutyl]acetonitrile], the IC50 in test [1] is under 0.01 µM. Moreover, the JAK2/JAK1 in test [2] is over 10.

Regarding `N#CCC1(n2cc(-c3ncnc4[nH]ccc34)cn2)CN([C@H]2CC[C@@H](Oc3cc(CN4CC[C@H](O)C4)cc(C(F)(F)F)n3)CC2)C1` [Compound 22, {1-(cis-4-{[4-{[(3S)-3-hydroxypyrrolidin-1-yl]methyl}-6-(trifluoromethyl)pyridin-2-yl]oxy}cyclohexyl)-3-[4-(7H-pyrrolo[2,3-d]pyrimidin-4-yl)-1H-pyrazol-1-yl]azetidin-3-yl}acetonitrile], in test [1], the IC50 was under 0.01 µM. The JAK2/JAK1 in test [2] is reported as over 10.

Molecule `C[C@@H](CO)NCc1cc(OC2CCN([C@H]3C[C@](CC#N)(n4cc(-c5ncnc6[nH]ccc56)cn4)C3)CC2)nc(C(F)(F)F)c1` [Compound 23, {trans-3-(4-{[4-({[(1S)-2-hydroxy-1-methylethyl]amino}methyl)-6-(trifluoromethyl)pyridin-2-yl]oxy}piperidin-1-yl)-1-[4-(7H-pyrrolo[2,3-d]pyrimidin-4-yl)-1H-pyrazol-1-yl]cyclobutyl}acetonitrile] displayed an IC50 in test [1] of under 0.01 µM. Also, the JAK2/JAK1 in test [2] was over 10.

In the case of `N#CC[C@]1(n2cc(-c3ncnc4[nH]ccc34)cn2)C[C@H](N2CCC(Oc3cc(CN4CCC[C@H]4CO)cc(C(F)(F)F)n3)CC2)C1` [Compound 12, {trans-3-(4-{[4-{[(2S)-2-(hydroxymethyl)pyrrolidin-1-yl]methyl}-6-(trifluoromethyl)pyridin-2-yl]oxy}piperidin-1-yl)-1-[4-(7H-pyrrolo[2,3-d]pyrimidin-4-yl)-1H-pyrazol-1-yl]cyclobutyl}acetonitrile], the IC50 in test [1] is under 0.01 µM. Also, the JAK2/JAK1 in test [2] is given as over 10.

`CCNCc1cc(O[C@H]2CC[C@@H](N3CC(CC#N)(n4cc(-c5ncnc6[nH]ccc56)cn4)C3)CC2)nc(C(F)(F)F)c1` [Compound 19, {1-(cis-4-{[4-[(ethylamino)methyl]-6-(trifluoromethyl)pyridin-2-yl]oxy}cyclohexyl)-3-[4-(7H-pyrrolo[2,3-d]pyrimidin-4-yl)-1H-pyrazol-1-yl]azetidin-3-yl}acetonitrile] came in with an IC50 in test [1] of under 0.01 µM. The JAK2/JAK1 in test [2] is recorded as over 10.

With `N#CCC(CN1CCN(C(=O)c2ccc(C#N)cc2F)CC1)n1ccc(-c2ncnc3[nH]ccc23)c1` (stereo not drawn) [Compound 9, 4-[(4-{3-cyano-2-[3-(7H-pyrrolo[2,3-d]pyrimidin-4-yl)-1H-pyrrol-1-yl]propyl}piperazin-1-yl)carbonyl]-3-fluorobenzonitrile], the IC50 in test [1] is under 0.01 µM. Moreover, in test [2], the JAK2/JAK1 is over 10.

Consider `N#CC[C@]1(n2cc(-c3ncnc4[nH]ccc34)cn2)C[C@H](N2CCC(Oc3cc(CN4CC(O)C4)cc(C(F)(F)F)n3)CC2)C1` [Compound 11, {trans-3-(4-{[4-[(3-hydroxyazetidin-1-yl)methyl]-6-(trifluoromethyl)pyridin-2-yl]oxy}piperidin-1-yl)-1-[4-(7H-pyrrolo[2,3-d]pyrimidin-4-yl)-1H-pyrazol-1-yl]cyclobutyl}acetonitrile], for which, in test [1], the IC50 was under 0.01 µM. Moreover, the JAK2/JAK1 in test [2] is over 10.

Molecule `N#CCC(C1CCN(c2cccc(Cl)n2)C1)n1cc(-c2ncnc3[nH]ccc23)cn1` (single isomer, unassigned) [Compound 6, 3-[1-(6-chloropyridin-2-yl)pyrrolidin-3-yl]-3-[4-(7H-pyrrolo[2,3-d]pyrimidin-4-yl)-1H-pyrazol-1-yl]propanenitrile] yielded an IC50 in test [1] of under 0.01 µM. Besides, in test [2], the JAK2/JAK1 is recorded as over 10.

Consider `N#CCC(CN1CCN(C(=O)c2ccc(C#N)cc2F)CC1)n1cc(-c2ncnc3[nH]ccc23)cn1` (stereo not drawn) [Compound 8, 4-[(4-{3-cyano-2-[4-(7H-pyrrolo[2,3-d]pyrimidin-4-yl)-1H-pyrazol-1-yl]propyl}piperazin-1-yl)carbonyl]-3-fluorobenzonitrile], for which the IC50 in test [1] is under 0.01 µM. For the same molecule, the JAK2/JAK1 in test [2] is given as over 10.

On to `C[C@@H](O)c1nc2cnc3ccsc3c2n1[C@H]1CC[C@H](CC#N)OC1` [Compound 5, ((2R,5S)-5-{2-[(1R)-1-hydroxyethyl]-1H-imidazo[4,5-d]thieno[3,2-b]pyridin-1-yl}tetrahydro-2H-pyran-2-yl)acetonitrile], for which, in test [1], the IC50 was under 0.1 µM. Further, the JAK2/JAK1 in test [2] is over 10.

Turning to `C[C@@H](O)CNCc1cc(OC2CCN([C@H]3C[C@](CC#N)(n4cc(-c5ncnc6[nH]ccc56)cn4)C3)CC2)nc(C(F)(F)F)c1` [Compound 24, {trans-3-(4-{[4-({[(2R)-2-hydroxypropyl]amino}methyl)-6-(trifluoromethyl)pyridin-2-yl]oxy}piperidin-1-yl)-1-[4-(7H-pyrrolo[2,3-d]pyrimidin-4-yl)-1H-pyrazol-1-yl]cyclobutyl}acetonitrile], in test [1], the IC50 is under 0.01 µM. In addition, the JAK2/JAK1 in test [2] is over 10.

With `N#CC[C@]1(n2cc(-c3ncnc4[nH]ccc34)cn2)C[C@H](N2CCC(Oc3cc(CCO)cc(C(F)(F)F)n3)CC2)C1` [Compound 26, {trans-3-(4-{[4-(2-hydroxyethyl)-6-(trifluoromethyl)pyridin-2-yl]oxy}piperidin-1-yl)-1-[4-(7H-pyrrolo[2,3-d]pyrimidin-4-yl)-1H-pyrazol-1-yl]cyclobutyl}acetonitrile], the IC50 in test [1] is under 0.01 µM. The JAK2/JAK1 in test [2] is over 10.

Regarding `N#CCC1(n2cc(-c3ncnc4[nH]ccc34)cn2)CN(C2CCN(C(=O)Nc3ccc(F)cc3C(F)(F)F)CC2)C1` [Compound 2, 4-{3-(Cyanomethyl)-3-[4-(7H-pyrrolo[2,3-d]pyrimidin-4-yl)-1H-pyrazol-1-yl]azetidin-1-yl}-N-[4-fluoro-2-(trifluoromethyl)phenyl] piperidine-1-carboxamide], in test [1], the IC50 was under 0.01 µM. Further, the JAK2/JAK1 in test [2] is reported as over 10.

Molecule `N#CCC1(n2cc(-c3ncnc4[nH]ccc34)cn2)CN(C2CCN(C(=O)c3ccnc(C(F)(F)F)c3F)CC2)C1` [Compound 4, {1-{1-[3-Fluoro-2-(trifluoromethyl)isonicotinoyl]piperidin-4-yl}-3-[4-(7H-pyrrolo[2,3-d]pyrimidin-4-yl)-1H-pyrazol-1-yl]azetidin-3-yl}acetonitrile] yielded an IC50 in test [1] of under 0.01 µM. In test [2], the JAK2/JAK1 is listed as over 10.

Turning to `C[C@H](O)CNCc1cc(OC2CCN([C@H]3C[C@](CC#N)(n4cc(-c5ncnc6[nH]ccc56)cn4)C3)CC2)nc(C(F)(F)F)c1` [Compound 25, {trans-3-(4-{[4-({[(2S)-2-hydroxypropyl]amino}methyl)-6-(trifluoromethyl)pyridin-2-yl]oxy}piperidin-1-yl)-1-[4-(7H-pyrrolo[2,3-d]pyrimidin-4-yl)-1H-pyrazol-1-yl]cyclobutyl}acetonitrile], in test [1], the IC50 is under 0.01 µM. In addition, the JAK2/JAK1 in test [2] was over 10.

In test [1], `N#CCC1(n2cc(-c3ncnc4[nH]ccc34)cn2)CN([C@H]2CC[C@@H](Oc3cc(CN4CC[C@@H](O)C4)cc(C(F)(F)F)n3)CC2)C1` [Compound 21, {1-(cis-4-{[4-{[(3R)-3-hydroxypyrrolidin-1-yl]methyl}-6-(trifluoromethyl)pyridin-2-yl]oxy}cyclohexyl)-3-[4-(7H-pyrrolo[2,3-d]pyrimidin-4-yl)-1H-pyrazol-1-yl]azetidin-3-yl}acetonitrile] gave a 50% inhibitory concentration (IC50) of under 0.01 µM. Further, in test [2], the JAK2/JAK1 was over 10.

Turning to `N#CCC1(n2cc(-c3ncnc4[nH]ccc34)cn2)CN([C@H]2CC[C@@H](Oc3cc(CCO)nc(C(F)(F)F)n3)CC2)C1` [Compound 18, {1-(cis-4-{[6-(2-hydroxyethyl)-2-(trifluoromethyl)pyrimidin-4-yl]oxy}cyclohexyl)-3-[4-(7H-pyrrolo[2,3-d]pyrimidin-4-yl)-1H-pyrazol-1-yl]azetidin-3-yl}acetonitrile], in test [1], the IC50 is under 0.01 µM. Moreover, in test [2], the JAK2/JAK1 is over 10.

For `N#CCC(C1CCN(c2nc3cccnc3o2)C1)n1cc(-c2ncnc3[nH]ccc23)cn1` (stereo not drawn) [Compound 7, 3-(1-[1,3]oxazolo[5,4-b]pyridin-2-ylpyrrolidin-3-yl)-3-[4-(7H-pyrrolo[2,3-d]pyrimidin-4-yl)-1H-pyrazol-1-yl]propanenitrile], in test [1], the IC50 was under 0.01 µM. Also, the JAK2/JAK1 in test [2] was over 10.

`CC(C)(O)c1cc(O[C@H]2CC[C@@H](N3CC(CC#N)(n4cc(-c5ncnc6[nH]ccc56)cn4)C3)CC2)nc(C(F)(F)F)c1` [Compound 20, {1-(cis-4-{[4-(1-hydroxy-1-methylethyl)-6-(trifluoromethyl)pyridin-2-yl]oxy}cyclohexyl)-3-[4-(7H-pyrrolo[2,3-d]pyrimidin-4-yl)-1H-pyrazol-1-yl]azetidin-3-yl}acetonitrile]: in test [1], the IC50 is under 0.01 µM. The JAK2/JAK1 in test [2] is recorded as over 10.

As to `N#CCC1(n2cc(-c3ncnc4[nH]ccc34)cn2)CN(C2CCN(C(=O)c3ccnc(C(F)(F)F)n3)CC2)C1` [Compound 3, [3-[4-(7H-pyrrolo[2,3-d]pyrimidin-4-yl)-1H-pyrazol-1-yl]-1-(1-{[2-(trifluoromethyl)pyrimidin-4-yl]carbonyl}piperidin-4-yl)azetidin-3-yl]acetonitrile], the IC50 in test [1] is under 0.01 µM. For the same molecule, the JAK2/JAK1 in test [2] is over 10.

As for `C[C@H](NC(=O)c1cc(F)c(N2CC(CC#N)(n3cc(-c4ncnc5[nH]ccc45)cn3)C2)cc1F)C(F)(F)F` [Compound 16, 4-{3-(cyanomethyl)-3-[4-(7H-pyrrolo[2,3-d]pyrimidin-4-yl)-1H-pyrazol-1-yl]azetidin-1-yl}-2,5-difluoro-N-[(1S)-2,2,2-trifluoro-1-methylethyl]benzamide], the IC50 in test [1] was under 0.01 µM. In addition, the JAK2/JAK1 in test [2] is over 10.
